Measured values published in US9096538B2, “Pharmaceutical comprising PPAR agonist” (Senju Pharmaceutical Co., Ltd., priority 2005, dated 2015).

Legend:
[1] = tested on: monkey meibomian gland epithelial cell; assay: Test Example 3: increase in cell number, cultured monkey meibomian gland epithelial cell (Cell Counting Kit-8); assay type: cell-based, cynomolgus monkey; settings: 48 + 48 hours; for Cell proliferation (%): no addition group = 100%, average ± standard deviation, N = 5
Method: A female cynomolgus monkey (Environmental Biological Life Science Research Center) was used. The experimental animal was used according to the International Guiding Principles for Biomedical Research Involving Animals.
A meibomian gland epithelial cell was prepared from a monkey eyelid. An eyelid was isolated, and stored in Dulbecco's phosphate buffered saline (D-PBS; Invitrogen), and this was transferred to a clean bench. The following cell preparation procedures were all performed sterilely.
After the isolated eyelid was immersed in 80% ethanol for 30 seconds, the eyelid was washed with D-PBS with 1% penicillin-streptomycin (Invitrogen) added thereto three times, and transferred to a minimum essential medium (MEM; Invitrogen). A fat tissue and a muscle tissue surrounding a meibomian gland tissue were removed under a stereomicroscope, and this was transferred to MEM containing 0.475 U/mL of collagenase A (Roche Diagnostics) and 2.4 U/mL of dispase II (Roche Diagnostics), and incubated at 37° C. overnight. After completion of incubation, the enzyme-treated tissue was placed again under the stereomicroscope, eyelashes and an eyelid connective tissue were removed, and a meibomian gland tissue was isolated. To the isolated gland tissue was added 1 mL of trypsin-EDTA (Invitrogen), and this was incubated at 37° C. for 5 minutes. After incubation, to this was added 9 mL of MEM containing 10% FBS to stop the enzymatic reaction, then, suction and exhaustion were repeated five times using a 10 mL pipette and, further, five times using an injection syringe equipped with a 21 G injection needle to disperse tissue-constituting cells. […] The cell suspension which had passed through the filter was recovered in a 50 mL centrifuge tube, and subjected to centrifugation at room temperature and 1,500 rpm for 5 minutes. To a cell layer containing an objective cell obtained by centrifugation was added 80 μL of D-PBS containing 0.5% bovine serum albumin (BSA; Sigma-Aldrich) to sufficiently suspend the cell, to this was added 20 μL of Anti-Fibroblast Microbeads (Militenyi Biotec), and this was allowed to stand at room temperature for 30 minutes. After completion of the reaction with an antibody, to this was added 2 mL of D-PBS containing 0.5% BSA, and this was subjected again to centrifugation at room temperature and 1,500 rpm for 5 minutes. To a cell layer containing an objective cell obtained by centrifugation was added 1 mL of D-PBS containing 0.5% BSA to sufficiently suspend the cell, and this was added dropwise to an LD column (Militenyi Biotec) equilibrated in advance using a column washing solution (D-PBS containing 2 mM EDTA (Dojindo Laboratories) and 0.5% BSA). Then, 2 mL of the column washing solution was added dropwise to the LD column. […] The cell recovered in the centrifuge tube was subjected again to centrifugation at room temperature and 1,500 rpm for 5 minutes to remove the supernatant. To this precipitation was added 1 mL of Defined Keratinocyte-Serum Free Medium (DK-SFM; Invitrogen) to suspend the cell and thereby, a meibomian gland epithelial cell suspension was prepared. The prepared cell was seeded on a culture dish (IWAKI) for cell culturing having a diameter of 3.5 cm which had been coated with a type I collagen solution (Nitta Gelatin Inc.) in advance, and to which 3 mL of DK-SFM had been added. The seeded cell was cultured in an incubator (SANYO) set at 37° C., 5% CO2, 95% air, and 100% humidity, and the culture medium was exchanged with a fresh culture medium every 48 hours until the test day.
Each test substance was dissolved in ethanol (Wako Pure Chemical Industries, Ltd.) to a 200-fold concentration of a final concentration in the culture medium, and this was stored at −80° C. until immediately before use.
As a culture dish for a cell proliferation promotion test, a 96-well culture dish for tissue culture (Corning) was used.

[2] = tested on: normal human corneal epithelial cell; assay: Test Example 5: increase in cell number, normal human corneal epithelial cell, 24 hours (Cell Counting Kit-8); assay type: cell-based; settings: no addition group = 100%, average ± standard deviation, N = 3 to 4
Method: A normal human corneal epithelial cell (KURABO) was used.
As the test substance, the following compounds were used. PPARδ agonist: L-165041 (Sigma-Aldrich), GW-501516 (Alexis)
In addition, as a positive control for confirming the cell proliferation promoting effect, a medium in which a mouse-derived epithelial growth factor (mEGF) contained in an HCGS proliferation additive set (KURABO) was added to a basal medium (basal medium+1 ng/mL mEGF) was used.
This cell suspension was seeded on a fibronectin-coated multiwell plate (24 well, BECTON DICKINSON) so that the cell number became 2×10^4 cells/500 μL/well (since the bottom area is 2 cm^2, the number is 1×10^4 cells/cm^2).
Further, 24 hours thereafter, the culture medium was exchanged with each 400 μL of the following culture media. • [1] Only basal medium (no addition group) • [2] Basal medium+mEGF (final concentration: 1 ng/mL; positive control group) • [3] Basal medium+L-165041 (final concentration: 0.01 μM and 0.1 μM) • [4] Basal medium+GW-501516 (final concentration: 0.001 μM and 0.01 μM)

[3] = tested on: monkey meibomian gland epithelial cell; assay: Test Example 8: increase in number of monkey meibomian gland epithelial cells (Cell Counting Kit-8); assay type: cell-based; settings: 3 x 48 hours; for Cell proliferation (%): no addition group = 100%, average ± standard deviation, N = 5
Source text: For studying the effect of promoting cell proliferation by each test substance, a culture medium prepared by removing the supplement attached to DK-SFM, from DK-SFM, was used as a basal medium, while as a positive control for confirming the cell proliferation promoting effect, a culture medium with the supplement added thereto (basal medium+supplement) was used according to instructions of an DK-SFM preparation protocol. […] In the test, a monkey meibomian gland epithelial cell which had been cultured to subconfluent, suspended in a cell banker (Nippon Zenyaku Kogyo Co., Ltd.), and cryopreserved in liquid nitrogen was used. The cell which had been cryopreserved was thawed, and transferred to a 50 mL centrifuge tube and a 10-fold amount of DK-SFM was added thereto. […] Each 64 μL of this cell suspension was dispensed into each well so that the cell number per bottom area (0.32 cm^2) of the collagen-treated 96-well culture dish for tissue culture became 4×10^4 cells/cm^2. […] After 48 hours from initial culture medium exchange, the culture medium was exchanged with a freshly prepared culture medium of each of [1] to [4]. Further, after 48 hours therefrom, the culture medium was exchanged again with a freshly prepared culture medium of each of [1] to [4].

CCCc1c(OCCCOc2ccc(OCC(=O)O)cc2)ccc(C(C)=O)c1O [L-165041, (4-(3-(4-acetyl-3-hydroxy-2-propyl)phenoxy)propoxyphenoxy)acetic acid]
Cell proliferation (%) ([1]; 10^−6 M): 142.8 ± 5.4%
Cell proliferation (%) ([1]; 10^−7 M): 136.1 ± 4.7%
cell proliferation compared to the no addition group (in words) ([1]; p<0.01 where significant): significantly higher than in the no addition group
Cell proliferation (%) ([2]; 10^−7 M): 127.8 ± 6.0%
Cell proliferation (%) ([2]; 10^−8 M): 128.1 ± 5.3%
cell proliferation compared to the no addition group (in words) ([3]; 10^−6 M): significantly higher than in the no addition group
Cell proliferation (%) ([3]; 10^−6 M): 169.1 ± 19.6%
Cell proliferation (%) ([3]; 10^−7 M): 142.9 ± 22.3%
